Test results published in article PMC7156458, “Synthetic biology based construction of biological activity-related library of fungal decalin-containing diterpenoid pyrones” (Nature Communications, 2020).
Where “and” joins values, the source holds several entries; their conditions need not be identical. Identical values can stand only once.

Legend:
[1] = tested on: ALDH-positive cells in MCF-7 cells; experiment: ALDH-positive cell population (ALDEFLUOR, flow cytometry); assay type: cell-based, human; conditions: for population of ALDH-positive cells / ALDH-positive cells ave (fold) / ALDH-positive cells ave / ALDH-positive cells (%): MCF-7, 1 μM; for ALDH-positive cells ave (fold) / ALDH-positive cells ave / ALDH-positive cells (%): 3 days; for ALDH-positive cells ave (fold): control = 1; for ALDH-positive cells ave: mean of 3, control 1.4; for ALDH-positive cells (%) / ALDH (+) Cell number (10^4 cells) / ALDH (-) Cell number (10^4 cells): single replicates; for ALDH (+) Cell number (10^4 cells) ave: 0 µM 1.61; for ALDH (-) Cell number (10^4 cells) ave: 0 µM 133.39; for ALDH (+) Cell number ave (fold) / ALDH (-) Cell number ave (fold): 0 µM = 1
Protocol: We also evaluated antiproliferative activity against cancer stem cells (CSCs), which are a small sub-population in tumour bulk identified in most cancer cells and clinical samples[52]. CSCs have been a major problem in cancer therapy because they are responsible for recurrence, metastasis and drug resistance to chemotherapeutic agents that affect proliferative cells[53]–[56]. Anti-CSC activity was evaluated by the inhibition of sphere-forming ability, a well-studied method to enrich the CSC-like population, and selective cytotoxicity against one of the most reliable CSC markers, aldehyde dehydrogenase (ALDH)-positive cells. […] Low-toxicity 16 was also added as a negative control. […] We next evaluated the three DDPs that inhibited mammosphere formations against ALDH-positive cells, a functional marker for breast CSCs. MCF-7 cells were treated with 1 μM of 11, 12 or 22, and the ALDH-positive cell population was analysed by using a fluorescence activated cell sorter (Supplementary Fig. 46b). […] Thus, for the first time, we successfully found DDPs with potent antiproliferative effects on the CSC-like population in MCF-7 cells, which may lead to new anti-CSC drugs.
Fig. 5 DDPs show anti-CSC activity in breast cancer cell line MCF-7. a Effect of DDPs on mammosphere formation. After the cells were cultured in the presence of 5 μM DDPs for 7 days, the number of mammospheres was microscopically counted and the percentage of mammosphere-forming cells was determined as mammosphere-forming efficiency (MFE; %). Data represent mean ± s.d. from three independent replicate experiments. P-values were calculated by a two-sided unpaired Student’s t-test, compared with control. b Micrographs show representative images of mammosphere formation from three independent replicate experiments using compound 11, 12, 16, 22. The scale bar, […]. c Effect of DDPs (1 μM, 3 days) on ALDH-positive cells in MCF-7 cells. Data represent mean ± s.d. from three independent replicate experiments. P-values were calculated by a two-sided unpaired Student’s t-test, compared with control. d Dose-dependent effect of compound 12 on ALDH-positive cells in MCF-7 cells. Data represent mean ± s.d. from three independent replicate experiments. P-values were calculated by a two-sided unpaired Student’s t-test. Source data underlying Fig. 5a, c, d are provided in a Source Data file.
!" ' ' '! !" ' ' '! !" ' ' '!!" ' ' '!!" ' ' '!!" ' ' '!!" ' ' '!!" ' ' '! !" ' ' '! !" ' ' '! !" ' ' '! !"#$ ( % ) * '! '' '# '+ '$ '( '% […]
Main population Single cells Single cells
(negative control) Without DEAB […]
P-values are calculated using a two-sided unpaired Student’s t-test; * p < 0.05, ** p < 0.01, compared with control. b, Gating strategy of flow cytometry analysis for detecting ALDH-positive cells. All samples were analyzed by sequential gating including main population (G1), single cells (G2, G3). Negative control with DEAB was used to establish G4 (ALDH-negative cells) and G5 (ALDH-positive cells). […]
Policy information about cell lines […]
were distributed from National Cancer Institute (Frederick, MD). HT-29, MCF-7, DU-145 and PC-3 were purchased from […]

OVCAR-5 = experiment: cells; parameters: JFCR39 human cancer cell line panel, antiproliferative dose response (optical density), GI50; conditions: Homo sapiens, OVCAR-5
Protocol: (§1) Initially, we evaluated new DDP analogues for their antiproliferative activities across the panel of 39 human cancer cell lines, JFCR39[50],[51]. […] Purified DDPs was dissolved in DMSO (Specially Prepared Reagent, Nuclease and Protease tested, NACALAI, 09659-14) to prepare 5 mM solutions. The Each DDP solution (5 mM) was used for antiproliferative effects on cancer cell lines (Supplementary Notes 23, 24, 25, 26), biological activity against Drosophila (Supplementary Note 27), anti-HIV assay (Supplementary Note 28) and screening of amyloid Ab42 aggregation inhibitors (Supplementary Notes 29).

PC-3 = experiment: cells; parameters: JFCR39 human cancer cell line panel, antiproliferative dose response (optical density), GI50; conditions: Homo sapiens, PC-3
Protocol: as §1

RXF-631L = experiment: cells; parameters: JFCR39 human cancer cell line panel, antiproliferative dose response (optical density), GI50; conditions: RXF-631L
Protocol: as §1

St-4 = experiment: cells; parameters: JFCR39 human cancer cell line panel, antiproliferative dose response (optical density), GI50; conditions: Homo sapiens, St-4
Protocol: as §1

HBC-5 = experiment: cells; parameters: JFCR39 human cancer cell line panel, antiproliferative dose response (optical density), GI50; conditions: HBC5
Protocol: as §1

BSY-1 = experiment: cells; parameters: JFCR39 human cancer cell line panel, antiproliferative dose response (optical density), GI50; conditions: BSY-1
Protocol: as §1

MDA-MB-231 = experiment: cells; parameters: JFCR39 human cancer cell line panel, antiproliferative dose response (optical density), GI50; conditions: Homo sapiens, MDA-MB-231
Protocol: as §1

KM-12 = experiment: cells; parameters: JFCR39 human cancer cell line panel, antiproliferative dose response (optical density), GI50; conditions: Homo sapiens, KM12
Protocol: as §1

NCI-H226 = experiment: cells; parameters: JFCR39 human cancer cell line panel, antiproliferative dose response (optical density), GI50; conditions: Homo sapiens, NCI-H226
Protocol: as §1

SNB-75 = experiment: cells; parameters: JFCR39 human cancer cell line panel, antiproliferative dose response (optical density), GI50; conditions: Homo sapiens, SNB-75
Protocol: as §1

DU-145 = experiment: cells; parameters: JFCR39 human cancer cell line panel, antiproliferative dose response (optical density), GI50; conditions: Homo sapiens, DU-145
Protocol: as §1

U251 = experiment: cells; parameters: JFCR39 human cancer cell line panel, antiproliferative dose response (optical density), GI50; conditions: Homo sapiens, U-251
Protocol: as §1

MKN-A = experiment: cells; parameters: JFCR39 human cancer cell line panel, antiproliferative dose response (optical density), GI50
Protocol: as §1

In the case of `C=C1CCC2C(C)(CCC=C(C)C)C(O)CCC2(C)C1Cc1c(OC)oc(C)c(C)c1=O` (stereo not drawn) [Compound 11], the “population of ALDH-positive cells” value [1] is reported as “reduced the population of ALDH-positive cells”, the “ALDH-positive cells ave (fold)” value [1] is reported as 0.40 fold and the ALDH-positive cells ave [1] is reported as 0.57%. For the same molecule, the “ALDH-positive cells (%)” value [1] was 0.4% and 0.9%.

With `C=C1CCC2C(C)(CCC=C(C)C)C(O)CCC2(C)C1Cc1c(OC)oc(CO)c(C)c1=O` (stereo not drawn) [Compound 12] the “ALDH (+) Cell number (10^4 cells) ave” value ([1]; MCF-7, 0.1 µM) was 0.68 10^4 cells, the “ALDH (-) Cell number (10^4 cells) ave” value ([1]; MCF-7, 0.1 µM) was 96.66 10^4 cells and the “ALDH (+) Cell number ave (fold)” value ([1]; MCF-7, 0.1 µM) was 0.42 fold. For the same molecule, the “ALDH (-) Cell number ave (fold)” value ([1]; MCF-7, 0.1 µM) was 0.72 fold, the “ALDH (+) Cell number (10^4 cells)” value ([1]; MCF-7, 0.1 µM) was 0.81 10^4 cells and 0.72 10^4 cells and 0.50 10^4 cells and the “ALDH (-) Cell number (10^4 cells)” value ([1]; MCF-7, 0.1 µM) was 89.19 10^4 cells and 102.28 10^4 cells and 98.51 10^4 cells. For the same molecule, the “ALDH (+) Cell number (10^4 cells) ave” value ([1]; MCF-7, 0.3 µM) was 0.09 10^4 cells, the “ALDH (-) Cell number (10^4 cells) ave” value ([1]; MCF-7, 0.3 µM) was 33.24 10^4 cells and the “ALDH (+) Cell number ave (fold)” value ([1]; MCF-7, 0.3 µM) was 0.0565 fold. For the same molecule, the “ALDH (-) Cell number ave (fold)” value ([1]; MCF-7, 0.3 µM) was 0.25 fold, the “ALDH (+) Cell number (10^4 cells)” value ([1]; MCF-7, 0.3 µM) was 0.054 10^4 cells and 0.12 10^4 cells and 0.10 10^4 cells and the “ALDH (-) Cell number (10^4 cells)” value ([1]; MCF-7, 0.3 µM) was 26.95 10^4 cells and 38.88 10^4 cells and 33.90 10^4 cells. The “population of ALDH-positive cells” value [1] was “reduced the population of ALDH-positive cells”, the “ALDH-positive cells ave (fold)” value [1] was 0.29 fold and the ALDH-positive cells ave [1] was 0.40%. The “ALDH-positive cells (%)” value [1] was 0.4% and 0.6% and 0.2%, the “ALDH (+) Cell number (10^4 cells) ave” value ([1]; MCF-7, 1 µM) was 0.09 10^4 cells and the “ALDH (-) Cell number (10^4 cells) ave” value ([1]; MCF-7, 1 µM) was 23.57 10^4 cells. The “ALDH (+) Cell number ave (fold)” value ([1]; MCF-7, 1 µM) was 0.06 fold, the “ALDH (-) Cell number ave (fold)” value ([1]; MCF-7, 1 µM) was 0.18 fold and the “ALDH (+) Cell number (10^4 cells)” value ([1]; MCF-7, 1 µM) was 0.14 10^4 cells and 0.08 10^4 cells and 0.05 10^4 cells. The “ALDH (-) Cell number (10^4 cells)” value ([1]; MCF-7, 1 µM) was 23.86 10^4 cells and 20.92 10^4 cells and 25.95 10^4 cells and the “cytotoxicity against ALDH-positive cells” value ([1]; MCF-7, lower concentrations) was “selective and potent cytotoxicity against ALDH-positive cells”.

With `C=C1CC[C@@H]2[C@](C)(CC[C@H]3O[C@H](C=C(C)C)C[C@@]23C)[C@@H]1Cc1c(OC)oc(C)c(C)c1=O` [Compound 22, O-methylated higginsianin A] the “population of ALDH-positive cells” value [1] was “reduced the population of ALDH-positive cells”, the “ALDH-positive cells ave (fold)” value [1] was 0.38 fold and the ALDH-positive cells ave [1] was 0.53%. For the same molecule, the “ALDH-positive cells (%)” value [1] was 0.4% and 0.5% and 0.7%.

`C=C1CCC2C3(C)CC(C=C(C)C)OC3CCC2(C)C1Cc1c(OC)oc(C)c(C)c1=O` (stereo not drawn) [Compound 23] was tested, and the GI50 (OVCAR-5) was 15.4 µM, the GI50 (PC-3) was 10.9 µM and the GI50 (RXF-631L) was 10.2 µM. The GI50 (St-4) was 12.4 µM, the GI50 (HBC-5) was 10.7 µM and the GI50 (BSY-1) was 10.3 µM. For the same molecule, the GI50 (MDA-MB-231) was 11.9 µM, the GI50 (KM-12) was 10.3 µM and the GI50 (NCI-H226) was 10.7 µM. The GI50 (SNB-75) was 13.3 µM, the GI50 (DU-145) was 12.3 µM and the GI50 (U251) was 13.2 µM. For the same molecule, the GI50 (MKN-A) was 0.318 µM.

`C=C1CC[C@H]2[C@]3(C)C[C@H](C=C(C)C)O[C@H]3CC[C@]2(C)[C@@H]1Cc1c(OC)oc(C)c(C)c1=O` [Compound 24] showed a GI50 (OVCAR-5) of 14.5 µM, a GI50 (PC-3) of 11.8 µM and a GI50 (RXF-631L) of 10.9 µM. The GI50 (St-4) was 12.2 µM, the GI50 (HBC-5) was 10.7 µM and the GI50 (BSY-1) was 9.59 µM. The GI50 (MDA-MB-231) was 11.6 µM, the GI50 (KM-12) was 9.49 µM and the GI50 (NCI-H226) was 10.6 µM. It also gave a GI50 (SNB-75) of 13.9 µM, a GI50 (DU-145) of 12.2 µM and a GI50 (U251) of 13.5 µM. The GI50 (MKN-A) was 0.573 µM.
